# Test results published in US10711011B2, “Substituted oxazolidines as anti-bacterial agents” (BUGWORKS RESEARCH, INC., priority 2016, dated 2020).
# Key:
# E. faecalis ATCC 29212 = test: Minimum Inhibitory Concentration (MIC) in LB media; format: cell-based, Enterococcus faecalis
# Description: (§1) The compounds of Formula I are of interest due to their potent antibacterial effects. The ability of the invention compounds disclosed herein to achieve an antibacterial effect may be evaluated with regard to their ability to inhibit the growth of bacterial species like Escherichia coli ATCC 25922, Staphylococcus aureus ATCC 29213, Klebsiella pneumoniae ATCC 13883, Acinetobacter baumannii ATCC 19606, Pseudomonas aurigenosa ATCC 27853, Enterococcus faecalis ATCC 29212 and Enterococcus faecalis ATCC 29212 using an assay based on the following Minimum Inhibitory Concentration (MIC) protocol:
# (§2) The test bacteria are grown in Luria Bertani Broth (HIMEDIA M1245), 25 grams of the powder is dissolved in 1000 ml distilled water and sterilized by autoclaving at 15 lbs pressure (121° C.) for 20 minutes. The medium sterility is checked by incubating at 37° C. for a period of 48 h.
# (§3) Bacterial cultures that are stored as glycerol stocks at −80° C. are sub cultured on LB agar plates to obtain isolated colonies. A single colony of each strain is cultured in LB broth. The cultures are incubated at 37° C., 200 rpm till they reach an optical density (OD at 600 nm) of 0.8 to 1. […] Test compounds are dissolved in dimethyl sulfoxide (DMSO) to a stock concentration of 4 mg/ml. A twofold dilution series of this DMSO stock is prepared in a 96 well V bottom microtitre plate from rows A to H. A 3 μL volume of these dilutions are transferred to a 96-well flat bottom microtitre assay plate. Controls to monitor the effects of DMSO and media sterility are included. Each well is inoculated with 150 μL of the above diluted culture. The plates are incubated at 37° C. overnight in a humidified incubator. The following morning, the plates are read using a Spectrophotometer at 600 nm wavelength. […] The antibacterial activity (MIC) determined against representative Gram positive (S. aureus, E. faecalis) and Gram negative (E. coli, P. aurigenosa, K. pneumoniae and A. baumannii) pathogen were reported Table 1.
# E. coli DNA gyrase = E. coli DNA gyrase (Escherichia coli, UniProt P0AES4+P0AES6); test: biochemical; conditions: supercoiling assay
# E. coli DNA gyrase, sequence (P0AES4 whole entry, one chain of several): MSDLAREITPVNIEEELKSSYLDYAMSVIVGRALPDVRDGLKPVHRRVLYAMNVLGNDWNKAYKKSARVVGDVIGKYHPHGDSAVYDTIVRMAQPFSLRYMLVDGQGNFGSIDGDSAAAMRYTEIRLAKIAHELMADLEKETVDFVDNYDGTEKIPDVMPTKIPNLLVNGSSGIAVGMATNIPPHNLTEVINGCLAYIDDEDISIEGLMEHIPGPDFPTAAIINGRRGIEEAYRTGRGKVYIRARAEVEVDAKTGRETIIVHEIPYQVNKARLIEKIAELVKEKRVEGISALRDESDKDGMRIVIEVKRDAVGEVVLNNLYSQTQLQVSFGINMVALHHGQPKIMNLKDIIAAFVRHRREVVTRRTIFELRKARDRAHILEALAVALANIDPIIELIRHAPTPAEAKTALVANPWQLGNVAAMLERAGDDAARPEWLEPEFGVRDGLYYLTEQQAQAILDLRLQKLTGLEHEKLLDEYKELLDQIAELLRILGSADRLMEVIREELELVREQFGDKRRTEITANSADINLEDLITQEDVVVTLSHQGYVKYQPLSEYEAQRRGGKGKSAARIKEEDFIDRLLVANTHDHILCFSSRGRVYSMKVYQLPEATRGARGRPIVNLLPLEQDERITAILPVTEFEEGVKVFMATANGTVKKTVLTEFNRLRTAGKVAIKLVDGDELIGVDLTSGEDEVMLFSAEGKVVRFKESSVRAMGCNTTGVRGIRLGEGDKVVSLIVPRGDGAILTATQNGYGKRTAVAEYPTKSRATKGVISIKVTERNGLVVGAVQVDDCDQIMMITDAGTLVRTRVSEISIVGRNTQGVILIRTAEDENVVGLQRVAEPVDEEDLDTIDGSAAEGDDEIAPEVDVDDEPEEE
# P. aurigenosa ATCC 27853 = test: Minimum Inhibitory Concentration (MIC) in LB media; format: cell-based, Pseudomonas aurigenosa; conditions: for Minimum Inhibitory Concentration P. aurigenosa ATCC 27853: LB Media
# Description: as §1, §2, §3
# [1] = test system: K. pneumoniae (Kpn) clinical strains; test: MIC50 and MIC90 studies using clinical strains (CLSI guidelines); format: cell-based
# E. coli ATCC 25922 = test: Minimum Inhibitory Concentration (MIC) in LB media; format: cell-based, Escherichia coli; conditions: for Minimum Inhibitory Concentration E. coli ATCC 25922: LB Media
# Description: as §1, §2, §3
# [2] = test system: P. aurigenosa (Pae) clinical strains; test: MIC50 and MIC90 studies using clinical strains (CLSI guidelines); format: cell-based
# K. pneumoniae ATCC 13883 = test: Minimum Inhibitory Concentration (MIC) in LB media; format: cell-based, Klebsiella pneumoniae; conditions: for Minimum Inhibitory Concentration K. pneumoniae ATCC 13883: LB Media
# Description: as §1, §2, §3
# [3] = test system: A. baumannii (Aba) clinical strains; test: MIC50 and MIC90 studies using clinical strains (CLSI guidelines); format: cell-based
# E. coli clinical strains = test: as above; format: cell-based
# E. coli topoisomerase IV = E. coli topoisomerase IV (Escherichia coli, UniProt P0AFI2+P20083); test: biochemical; conditions: decatenation assay; read-out: E. coli Topo IV IC50
# E. coli topoisomerase IV, sequence (P0AFI2 whole entry): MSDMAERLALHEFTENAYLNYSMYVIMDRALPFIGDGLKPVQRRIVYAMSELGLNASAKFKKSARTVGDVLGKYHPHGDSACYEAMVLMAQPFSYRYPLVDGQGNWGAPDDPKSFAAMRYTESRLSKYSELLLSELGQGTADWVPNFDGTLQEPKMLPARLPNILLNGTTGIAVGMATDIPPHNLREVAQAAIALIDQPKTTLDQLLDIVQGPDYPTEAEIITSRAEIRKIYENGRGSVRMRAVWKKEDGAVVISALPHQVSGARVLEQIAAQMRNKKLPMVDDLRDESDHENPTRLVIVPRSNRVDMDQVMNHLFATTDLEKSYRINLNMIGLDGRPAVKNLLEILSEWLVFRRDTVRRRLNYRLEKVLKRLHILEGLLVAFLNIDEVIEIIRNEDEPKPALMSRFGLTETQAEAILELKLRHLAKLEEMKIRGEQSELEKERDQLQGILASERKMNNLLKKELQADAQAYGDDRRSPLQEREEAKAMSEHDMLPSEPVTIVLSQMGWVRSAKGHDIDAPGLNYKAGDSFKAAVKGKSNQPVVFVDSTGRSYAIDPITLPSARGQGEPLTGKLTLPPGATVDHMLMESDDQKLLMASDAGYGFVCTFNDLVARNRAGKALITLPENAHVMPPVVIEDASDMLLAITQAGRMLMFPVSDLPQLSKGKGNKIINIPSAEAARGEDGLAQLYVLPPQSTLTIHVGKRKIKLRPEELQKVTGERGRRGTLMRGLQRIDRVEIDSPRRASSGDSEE
# E. coli topoisomerase IV, sequence (P20083 whole entry): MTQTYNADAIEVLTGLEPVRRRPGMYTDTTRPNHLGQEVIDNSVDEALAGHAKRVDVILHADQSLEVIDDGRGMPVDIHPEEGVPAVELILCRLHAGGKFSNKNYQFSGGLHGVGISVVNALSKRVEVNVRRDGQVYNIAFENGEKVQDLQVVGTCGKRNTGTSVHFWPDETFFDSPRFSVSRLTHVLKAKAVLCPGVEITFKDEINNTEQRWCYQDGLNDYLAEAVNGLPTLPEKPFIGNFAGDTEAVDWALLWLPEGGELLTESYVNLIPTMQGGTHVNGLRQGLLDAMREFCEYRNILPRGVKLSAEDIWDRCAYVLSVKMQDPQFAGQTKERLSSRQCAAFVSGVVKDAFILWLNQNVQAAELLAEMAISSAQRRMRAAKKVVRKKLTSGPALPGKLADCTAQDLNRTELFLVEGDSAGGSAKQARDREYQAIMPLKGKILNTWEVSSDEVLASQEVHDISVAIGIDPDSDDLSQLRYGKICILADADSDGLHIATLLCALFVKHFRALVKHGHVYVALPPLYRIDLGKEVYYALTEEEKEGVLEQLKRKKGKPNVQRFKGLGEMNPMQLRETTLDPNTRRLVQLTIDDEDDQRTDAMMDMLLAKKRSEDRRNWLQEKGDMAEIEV
# A. baumannii ATCC 19606 = test: Minimum Inhibitory Concentration (MIC) in LB media; format: cell-based, Acinetobacter baumannii; conditions: for Minimum Inhibitory Concentration A. baumannii ATCC 19606: LB Media
# Description: as §1, §2, §3
# S. aureus ATCC 29213 = test: Minimum Inhibitory Concentration (MIC) in LB media; format: cell-based, Staphylococcus aureus; conditions: for Minimum Inhibitory Concentration S. aureus ATCC 29213: LB Media
# Description: as §1, §2, §3
# [4] = Klebsiella pneumoniae, Kpn, 211 strains
# [5] = Acinetobacter baumannii, Aba, 169 strains
# [6] = Escherichia coli, E. coli, 201 strains
smiles,measurement,setting,value
"CN1C(=O)Cc2ccc(F)c(CCNCCC3CN(c4ccc5c(n4)NC(=O)CO5)C(=O)O3)c21 (single isomer, unassigned) [Example 14, 6-(5-(2-((2-(6-fluoro-1-methyl-2-oxoindolin-7-yl)ethyl)amino)ethyl)-2-oxooxazolidin-3-yl)-2H-pyrido[3,2-b][1,4]oxazin-3(4H)-one]",Minimum Inhibitory Concentration E. faecalis ATCC 29212,E. faecalis ATCC 29212,0.25 µg/mL
same,IC50,E. coli DNA gyrase,0.1 µM
same,Minimum Inhibitory Concentration P. aurigenosa ATCC 27853,P. aurigenosa ATCC 27853,0.5 µg/mL
same,MIC50,[1]; [4],1 mg/L
same,MIC90,[1]; [4],4 mg/L
same,MIC ATCC13883,"[1]; Kpn reference strain ATCC13883, unit inferred",0.25 mg/L
same,Minimum (MIC),"[1]; Kpn, 211 strains, unit inferred",0.06 mg/L
same,Minimum Inhibitory Concentration E. coli ATCC 25922,E. coli ATCC 25922,0.03 µg/mL
same,MIC ATCC27853,"[2]; Pae reference strain ATCC27853, unit inferred",0.5 mg/L
same,MIC50,"[2]; Pae, 215 strains",0.5 mg/L
same,MIC90,"[2]; Pae, 215 strains",1 mg/L
same,Minimum (MIC),"[2]; Pae, 215 strains, unit not given, in µg/mL",0.03125
same,Minimum Inhibitory Concentration K. pneumoniae ATCC 13883,K. pneumoniae ATCC 13883,0.125 µg/mL
same,MIC ATCC19606,"[3]; Aba reference strain ATCC19606, unit inferred",0.06 mg/L
same,Minimum (MIC),"[3]; Aba, 169 strains, unit not given, in µg/mL",0.015
same,MIC50,[3]; [5],0.25 mg/L
same,MIC90,[3]; [5],0.5 mg/L
same,MIC ATCC25922,"E. coli clinical strains; E. coli reference strain ATCC25922, no unit in this row (MIC50/MIC90 rows: μg/ml)",0.06 mg/L
same,Minimum (MIC),"E. coli clinical strains; E. coli, 201 strains, unit inferred",0.03 mg/L
same,MIC50,E. coli clinical strains; [6],0.25 mg/L
same,MIC90,E. coli clinical strains; [6],0.5 mg/L
same,IC50,E. coli topoisomerase IV,0.036 µM
same,Minimum Inhibitory Concentration A. baumannii ATCC 19606,A. baumannii ATCC 19606,0.03 µg/mL
same,Minimum Inhibitory Concentration S. aureus ATCC 29213,S. aureus ATCC 29213,0.03 µg/mL
"CCN1C(=O)Cc2ccc(F)c(CNCCCC3CN(c4ccc5c(n4)NC(=O)CO5)C(=O)O3)c21 (stereo not shown) [Example 8, 6-(5-(3-(((1-Ethyl-6-fluoro-2-oxoindolin-7-yl)methyl)amino)propyl)-2-oxooxazolidin-3-yl)-2H-pyrido[3,2-b][1,4]oxazin-3(4H)-one]",MIC,"E. faecalis ATCC 29212; Enterococcus faecalis, ATCC29212",0.15 mg/L
same,IC50,E. coli DNA gyrase,0.054 µM
same,MIC,"P. aurigenosa ATCC 27853; Pseudomonas, ATCC27853, LB Media",2.5 mg/L
same,MIC,"E. coli ATCC 25922; Escherichia coli, ATCC25922, LB Media",0.15 mg/L
same,MIC,"K. pneumoniae ATCC 13883; Klebsiella pneumoniae, ATCC13883, LB Media",0.3 mg/L
same,IC50,E. coli topoisomerase IV,0.362 µM
same,MIC,"A. baumannii ATCC 19606; Acinetobacter baumannii, ATCC19606, LB Media",0.15 mg/L
same,MIC,"S. aureus ATCC 29213; Staphylococcus aureus, ATCC29213, LB Media",0.07 mg/L
"CN1C(=O)Cc2ccc(F)c(CNCCCC3CN(c4ccc5c(n4)NC(=O)CO5)C(=O)O3)c21 (single isomer, unassigned) [Example 10, 6-(5-(3-(((6-fluoro-1-methyl-2-oxoindolin-7-yl)methyl)amino)propyl)-2-oxooxazolidin-3-yl)-2H-pyrido[3,2-b][1,4]oxazin-3(4H)-one]",Minimum Inhibitory Concentration E. faecalis ATCC 29212,E. faecalis ATCC 29212,0.5 µg/mL
same,IC50,E. coli DNA gyrase,0.106 µM
same,Minimum Inhibitory Concentration P. aurigenosa ATCC 27853,P. aurigenosa ATCC 27853,1 µg/mL
same,Minimum Inhibitory Concentration E. coli ATCC 25922,E. coli ATCC 25922,0.125 µg/mL
same,Minimum Inhibitory Concentration K. pneumoniae ATCC 13883,K. pneumoniae ATCC 13883,0.25 µg/mL
same,IC50,E. coli topoisomerase IV,0.398 µM
same,Minimum Inhibitory Concentration A. baumannii ATCC 19606,A. baumannii ATCC 19606,0.06 µg/mL
same,Minimum Inhibitory Concentration S. aureus ATCC 29213,S. aureus ATCC 29213,0.06 µg/mL
